According to patent publication EP1289507B1, “USE OF AN ALDOSTERONE ANTAGONIST FOR THE TREATMENT OR PROPHYLAXIS OF ALDOSTERONE-MEDIATED PATHOGENIC EFFECTS” (priority 2000, dated 2001):
“Also recorded” adds a separate entry of the source. Like-named read-outs stand apart in the source and are kept apart here.

How the values were obtained:
[1] = test system: aldosterone/salt uninephrectomized rats; experiment: Myocardial injury in aldosterone/salt uninephrectomized rats; format: in vivo, Sprague Dawley rats; details: eplerenone 100 mg/k/d in chow; aldosterone 0.75ug/hr, 1% NaCl
Experimental: Sprague Dawley rats (250 g) were uninephrectomized and provided with 1% NaCl-solution as the only source of water. The rats were then implanted with Alzet mini pump that subcutaneously delivered either aldosterone (0.75ug/hr) or vehicle. […] Blood pressure was measured by radio telemetry units implanted in abdominal aorta. Rats were sacrificed for examination of the hearts.

[2] = test system: captopril-treated, saline-drinking SHRSP; experiment: Protocol 2: Angiotensin II-induced renal damage in captopril-treated saline-drinking SHRSP; format: in vivo, male SHRSP/A3N
Experimental: Animals. Studies were conducted in accordance with institutional guidelines using male SHRSP/A3N (generations F-75 to F-78), n = 37, from our local colony. These animals were bred from NIH stock, derived from the SHRSP/A3N substrain described originally by Okamoto and coworkers (Okamoto K et al. Circ. Res. 34 and 35 (suppl I):I-143-I-153.). All animals were housed in a room maintained on a 12:12-h light:dark-cycle and an ambient temperature of 22 ± 1°C in the Animal Care Facility at New York Medical College. Rats were weaned at 4 weeks of age and allowed free access to Purina Lab Chow 5001 (Ralston Purina, St. Louis, MO) and tap water until the initiation of experimental protocols.
SHRSP were placed on Stroke-Prone Rodent Diet (#39-288, Zeigler Bros Inc., Gardners, PA) and 1% NaCl drinking solution ad libitum starting at 8.3 weeks of age. […] Animals were handled and weighed daily. Urine samples were collected for the assessment of proteinuria. Systolic blood pressure and heart rate were measured each week. After 2 weeks of treatment, animals were decapitated, trunk blood was collected into chilled EDTA tubes, and the kidneys were removed, blotted dry, and immediately weighed. Coronal sections of kidney were fixed and later processed for light microscopic evaluation.
Assays and Analyses. Systolic blood pressure and heart rate of awake animals were measured by tail-cuff plethysmography using a Natsume KN-210 manometer and tachometer (Peninsula Laboratories Inc., Belmont, CA). Rats were warmed at 37°C for 10 min and allowed to rest quietly in a Lucite chamber before measurement of blood pressure. Measurements of urine volume were made gravimetrically. Urinary protein concentration was determined by the sulfosalicylic acid turbidity method. Plasma aldosterone was measured by radioimmunoassay using ^125I-aldosterone as a tracer (Coat-a Count Aldosterone, Diagnostic Products Co., Los Angeles, CA).
Histology. Kidneys were preserved in 10% phosphate-buffered formalin. Coronal sections (2-3 µm) were stained with hematoxylin and eosin and examined by light microscopy in a blinded fashion as previously described (Stier CT et al. J Pharmacol Exp Ther (1992) 260:1410-1415). Glomerular damage was categorized as ischemic or thrombotic. Ischemic lesions were defined as retraction of glomerular capillary tufts with or without appreciable mesangiolysis. Glomerular thrombotic lesions were defined as any one of a combination of the following: segmental to global fibrinoid necrosis, focal thrombosis of glomerular capillaries, swelling and proliferation of intracapillary (endothelial and mesangial) and/or extracapillary cells (crescents), and expansion of reticulated mesangial matrix with or without significant hypercellularity. […] Vascular thrombotic lesions were defined as any one or a combination of the following: mural fibrinoid necrosis, extravasation and fragmentation of red blood cells, and luminal and/or mural thrombosis. Proliferative arteriopathy was characterized by proliferation of markedly swollen myointimal cells with swollen round to ovoid vesicular nuclei surrounded by mucinous extracellular matrix ("onion skinning") often resulting in nodular thickening. Vascular damage was expressed as the number of arteries and arterioles with lesions per 100 glomeruli. The presence of casts and tubular (ischemic) retraction and simplification was assessed semiquantitatively.
Statistical Analysis. Significant effects with respect to treatment and time were determined by two-way analysis of variance. Data with only one grouping variable were analyzed statistically by Student's unpaired t tests. When more than two groups were compared, one-way analysis of variance was performed followed by the post-hoc Newman-Keul's multiple comparison test. Data were analyzed using version 2.01 of the GraphPad Prism statistical software package (GraphPad Software Inc., San Diego, CA). P < .05 was considered statistically significant. Data are reported as mean ± SEM.

[3] = Pharmacokinetics and absorption after IV and oral [14C]eplerenone in the rat; format: in vivo; details: for half-life / clearance: iv, IV 15 mg/kg; for half-life / clearance / Cmax / bioavailability: 15 mg/kg; for Cmax / bioavailability: po; for Cmax: Cmax of total eplerenone
Experimental: Plasma, urine and fecal samples were analyzed for total radioactivity.

[4] = Single dose tolerability and pharmacokinetic trials, Japan and Ex-Japan; format: in vivo, Japanese (Japan) and European (Ex-Japan) subjects; details: for CL/F: single dose, least squares mean
Experimental: A total of 76 European subjects and 38 Japanese subjects participated in the single and multiple dose tolerability and food effect trials. Three of the studies were Ex-Japan studies and included doses ranging from 10 mg to 1000 mg. The other two studies were conducted in Japan and included doses ranging from 50 mg to 600 mg.
The Ex-Japan trials included (i) a single dose tolerability trial, and (ii) a multiple dose tolerability trial, and (iii) a food effect study.
Both single dose and multiple dose tolerability trials were conducted in Japan utilizing healthy male Japanese subjects. […] Six subjects who received the 100 mg dose also participated in the food effect treatment arm of the single dose tolerability trial.
Combining single dose fasting pharmacokinetic data from all five studies, an analysis of variance with factors for country (Japan, Ex-Japan), study nested within country, and dose were performed on the dose-normalized Cmax and AUC values to assess the effect of country (population). Dose normalization was done to the lowest dose (10 mg for single dose, 100 mg for multiple dose). In the absence of intravenous data, the distribution volume (V/F) and clearance (CL/F) parameters are represented as the apparent values and are normalized to 70 kg of body weight. There were no statistically significant differences between the Japan and Ex-Japan trials in any of the pharmacokinetic parameters analyzed.
No statistically significant differences were noted between the Japan and ex-Japan population for any of the derived parameters evaluated.
Each panel consisted of six subjects who were given eplerenone and two subjects who were given placebo.

[5] = captopril plus vehicle, or captopril plus angiotensin II plus eplerenone

COC(=O)[C@@H]1CC2=CC(=O)CC[C@]2(C)[C@@]23O[C@@H]2C[C@@]2(C)[C@@H](CC[C@@]24CCC(=O)O4)[C@H]13 [Eplerenone, Pregn-4-ene-7,21-dicarboxylic acid, 9,11-epoxy-17-hydroxy-3-oxo-, γ-lactone, methyl ester, (7α, 11α, 17β)-]
histopathologic myocardial damage [1]: prevents the histopathologic damage; also recorded: prevents the aldosterone plus high sodium myocardial damage
Glomerular damage, Ischemic ([2]; Captopril 50 mg/kg/d + vehicle, or CAP, Angiotensin II 25 ng/min + Eplerenone 100 mg/kg/d, 2 weeks): 3.0 ± 1.0 lesions/100 glomeruli
Glomerular damage, Thrombotic ([2]; as Table A-8B, 2 weeks): 1.0 ± 0.3 lesions/100 glomeruli
Glomerular damage, Total ([2]; as Table A-8B, 2 weeks): 3.0 ± 1.0 lesions/100 glomeruli
Renal arteriopathy, Proliferative ([2]; as Table A-8B, 2 weeks): 0.1 ± 0.1 lesions/100 glomeruli
Renal arteriopathy, Thrombotic ([2]; as Table A-8B, 2 weeks): 4.0 ± 1.0 lesions/100 glomeruli
Renal arteriopathy, Total ([2]; as Table A-8B, 2 weeks): 4.0 ± 1.0 lesions/100 glomeruli
renal damage ([2]; captopril plus angiotensin II plus eplerenone 100 mg/kg/d): 3 ± 1%
Preterminal systolic blood pressure [2, 5]: 231 ± 5 mm Hg
tubules with ischemic retraction and simplification [2, 5]: 2.5 ± 0.9%
proteinuria (urinary protein excretion) ([2]; end of study (2 weeks), captopril 50 mg/kg/d plus vehicle, or captopril plus angiotensin II 25 ng/min plus eplerenone 100 mg/kg/d): 28 ± 5 mg/day
systemic availability of total radioactivity ([3]; oral 15 mg/kg, female rat): 66.4%
mean Cmax of total radioactivity ([3]; oral 15 mg/kg, female rats): 7.67 µg equivalents/mL
systemic availability of total radioactivity ([3]; oral 15 mg/kg, male rat): 59.6%
mean Cmax of total radioactivity ([3]; oral 15 mg/kg, male rats): 7.64 µg equivalents/mL
half-life ([3]; rat, plasma, elimination half-life of eplerenone, female rat): 1.14 h
half-life ([3]; rat, plasma, elimination half-life of total eplerenone, female rat, closed plus open form): 1.14 h
half-life ([3]; rat, plasma, elimination half-life of total eplerenone, male rat, lactone ring closed form plus open form): 1.01 h
clearance ([3]; rat, plasma, plasma clearance (CL) of eplerenone, female rat): 20 mL/min/kg
clearance ([3]; rat, plasma, plasma clearance (CL) of total eplerenone, female rat): 11.6 mL/min/kg
clearance ([3]; rat, plasma, plasma clearance (CL) of total eplerenone, male rat): 16.4 mL/min/kg
Cmax ([3]; rat, plasma, oral 15 mg/kg, female rat): 6350 ng/mL
Cmax ([3]; rat, plasma, oral 15 mg/kg, male rat): 3200 ng/mL
bioavailability ([3]; rat, plasma, systemic availability of eplerenone, oral 15 mg/kg, female rat): 66.1%
bioavailability ([3]; rat, plasma, systemic availability of eplerenone, oral 15 mg/kg, male rat): 25.6%
bioavailability ([3]; rat, plasma, systemic availability of total eplerenone, oral 15 mg/kg, female rat): 74.2%
bioavailability ([3]; rat, plasma, systemic availability of total eplerenone, oral 15 mg/kg, male rat): 29.4%
Tmax ([3]; rat, plasma, oral 15 mg/kg, male rats): 0.5 h
adverse events ([4]; healthy Japanese male subjects, single doses 50-600 mg): no adverse events were reported
CL/F ([4]; human, blood, po, Ex-Japan, read-out: CL/F (converted)): 228 mL/min
CL/F ([4]; human, blood, po, Japan, read-out: CL/F (converted)): 230 mL/min
CL/F ([4]; Ex-Japan): 14.44 L/hr/70 kg
CL/F ([4]; Japan): 13.52 L/hr/70 kg
